Experiment [1] relates to SL13 cells. Put plainly: Telomere Southern blot after lentiviral overexpression of mTR and mTERT. It is filed as cell-based, mouse. As to conditions: SL13 cells transduced with lentivirus expressing mTR and mTERT; day 6.
For the next experiment, the system named is HT1080 cells. Put plainly: Bulk telomere length, Southern blot, HT1080. It is filed as cell-based, human.
The target in another experiment is T1, telomerase (Homo sapiens, UniProt O14746).
T1 construct: expressed in transfected cells; host or cells: 293TREx-0611 cells overexpressing TPP1, POT1 and hTERT, transfected with U1-hTR; whole cell lysate
T1 sequence (O14746 whole entry): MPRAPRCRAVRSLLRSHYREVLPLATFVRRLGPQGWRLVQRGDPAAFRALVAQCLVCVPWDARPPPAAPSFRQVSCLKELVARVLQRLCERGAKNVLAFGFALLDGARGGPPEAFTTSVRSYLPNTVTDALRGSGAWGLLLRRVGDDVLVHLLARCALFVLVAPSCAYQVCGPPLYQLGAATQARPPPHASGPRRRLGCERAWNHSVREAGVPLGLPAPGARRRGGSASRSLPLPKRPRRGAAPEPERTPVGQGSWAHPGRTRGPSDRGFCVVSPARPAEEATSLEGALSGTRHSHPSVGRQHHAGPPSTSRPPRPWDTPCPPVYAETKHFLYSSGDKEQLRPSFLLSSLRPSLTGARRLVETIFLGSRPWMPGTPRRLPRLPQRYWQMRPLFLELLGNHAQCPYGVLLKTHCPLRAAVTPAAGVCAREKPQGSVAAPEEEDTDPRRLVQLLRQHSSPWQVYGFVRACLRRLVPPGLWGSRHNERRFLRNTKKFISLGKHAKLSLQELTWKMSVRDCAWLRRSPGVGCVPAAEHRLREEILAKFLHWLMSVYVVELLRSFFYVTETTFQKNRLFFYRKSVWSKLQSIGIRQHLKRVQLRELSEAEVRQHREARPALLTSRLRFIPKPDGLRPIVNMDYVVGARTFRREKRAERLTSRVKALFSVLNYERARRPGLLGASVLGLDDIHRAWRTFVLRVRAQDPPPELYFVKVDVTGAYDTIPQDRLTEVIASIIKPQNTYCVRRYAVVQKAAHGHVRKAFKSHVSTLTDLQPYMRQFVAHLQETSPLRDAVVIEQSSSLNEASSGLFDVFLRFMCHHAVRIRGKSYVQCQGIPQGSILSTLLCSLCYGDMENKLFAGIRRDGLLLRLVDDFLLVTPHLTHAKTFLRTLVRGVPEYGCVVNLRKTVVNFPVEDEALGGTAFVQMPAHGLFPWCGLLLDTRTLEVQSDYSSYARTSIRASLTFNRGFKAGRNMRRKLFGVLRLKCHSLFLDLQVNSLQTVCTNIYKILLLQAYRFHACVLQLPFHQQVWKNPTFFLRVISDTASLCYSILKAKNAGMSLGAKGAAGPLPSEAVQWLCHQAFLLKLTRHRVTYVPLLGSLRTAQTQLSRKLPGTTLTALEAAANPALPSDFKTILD
T1 sequence (O60832 whole entry partner): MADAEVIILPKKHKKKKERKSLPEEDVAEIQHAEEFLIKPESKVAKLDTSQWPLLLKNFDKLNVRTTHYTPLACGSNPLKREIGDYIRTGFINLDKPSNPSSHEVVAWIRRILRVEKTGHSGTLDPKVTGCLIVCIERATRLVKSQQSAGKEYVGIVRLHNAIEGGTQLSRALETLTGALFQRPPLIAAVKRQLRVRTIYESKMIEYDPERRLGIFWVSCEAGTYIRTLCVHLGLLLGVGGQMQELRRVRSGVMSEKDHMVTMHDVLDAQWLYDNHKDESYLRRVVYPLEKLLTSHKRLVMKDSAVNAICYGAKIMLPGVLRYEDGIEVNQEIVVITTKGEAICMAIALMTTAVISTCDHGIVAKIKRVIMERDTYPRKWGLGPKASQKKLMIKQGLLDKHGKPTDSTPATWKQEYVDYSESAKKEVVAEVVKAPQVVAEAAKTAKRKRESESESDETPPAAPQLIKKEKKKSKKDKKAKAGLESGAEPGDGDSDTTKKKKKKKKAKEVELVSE
T1 sequence (Q9NPE3 whole entry partner): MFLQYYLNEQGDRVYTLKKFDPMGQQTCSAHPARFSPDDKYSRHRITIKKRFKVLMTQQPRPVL
T1 sequence (Q9NX24 whole entry partner): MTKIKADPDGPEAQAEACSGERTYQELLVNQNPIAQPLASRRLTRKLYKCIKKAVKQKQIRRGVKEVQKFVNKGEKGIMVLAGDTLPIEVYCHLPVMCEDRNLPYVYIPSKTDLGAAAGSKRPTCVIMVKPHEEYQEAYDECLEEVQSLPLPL
T1 sequence (Q9NY12 whole entry partner): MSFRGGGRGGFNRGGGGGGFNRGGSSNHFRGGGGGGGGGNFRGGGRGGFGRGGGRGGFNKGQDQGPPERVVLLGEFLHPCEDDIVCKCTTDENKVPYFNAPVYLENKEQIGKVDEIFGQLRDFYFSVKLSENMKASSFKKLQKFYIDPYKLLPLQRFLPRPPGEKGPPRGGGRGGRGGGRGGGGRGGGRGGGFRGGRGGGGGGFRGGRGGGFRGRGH
The experiment can be described thus: Direct telomerase activity assay in lysates of treated cells. The conditions noted are these: 293TREx-0611 cells; 30 μM KU55933 or 5 μM Olaparib for two hours. It counts as cell-based. The protocol:
Telomerase is known to be phosphorylated, so whether the KU55933 or Olaparib treatment of cells might directly affect telomerase activity was examined. […] ATM kinase is a positive regulator of telomere elongation in both mouse and human cells, and the effects of ATM inhibition are not due to inhibition of telomerase enzyme activity.
Telomerase activity was assayed in whole cell lysates with a modified protocol (Nandakumar et al., 2012, Nature 492, 285-289). 293TREx-0611 cells overexpressing TPP1, POT1, and hTERT were seeded (3×10^5 cells) per well in a poly-D-Lysine coated 6-well plate. The next day, cells were transfected with U1-hTR using Lipofectamine™ 3000 and incubated overnight. Then, they were treated with 30 μM KU55933, 5 μM Olaparib, or DMSO for two hours before harvesting in 100 μl 1×CHAPS. Cells were lysed on ice for 30 minutes, vortexing occasionally, and cleared by spinning (8000 rpm, 20 min, 4° C.). For negative controls, 25 μl cleared lysate was incubated at 65° C. with 1 μl RNaseA (1 mg/ml) for 10 minutes. For direct telomerase assays, lysates were incubated with primer a5 (Wang et al., 2007) in 1× telomerase buffer (50 mM Tris-Cl, 30 mM KCl, 1 mM MgCl2, 1 mM spermidine), 0.5 mM dTTP, 0.5 mM dATP, 2.92 μM dGTP, and 0.33 μM α32P-dGTP at 30° C. Reactions were stopped at 10 or 15 minutes with 20 mM EDTA, 10 mM Tris spiked with 500 cpm end-labeled 18mer. […]

Experiment [2] concerns SL13 cells. The experiment can be described thus: Bulk telomere length, Southern blot, SL13 long-term culture. It is filed as cell-based, mouse. An excerpt: ATM has been proposed to play different roles in signaling telomere dysfunction in human and mouse cells. Since it is not yet clear whether the damage signaling is mechanistically linked to telomere elongation, and given the discrepant reports of the role of ATM in human telomere length, the role of ATM in human cells was revisited.
As an independent test of Olaparib on telomere length, telomeres were examined by Southern blot in cultured SL13 cells grown in the presence of Olaparib for an extended time. […] Taken together, the experiments described here indicate that inhibition of ATM blocks telomere elongation while activation of ATM stimulates telomere elongation.
Telomere lengths of SL13 cells treated with 10 μM KU55933 were measured at different population doublings (PD) using genomic Southern blot analysis. […] Boxed numbers indicate the pixel positions corresponding to the blot.
To examine the in vivo chr4 cleavage, genomic DNA of SL13 treated with doxycycline for various time points was extracted using the Puregene™ Core Kit A (Qiagen) and digested with NcoI restriction enzyme (NEB). […] Labeled probe was counted and 10^6 counts/ml (probe) or 10^4 counts/ml (2-log ladder) was denatured at 100° C. for 5 minutes and added to the pre-hybridization solution and hybridized overnight at 42° C. […]

For the next experiment, the system named is human HCT116. The experiment can be described thus: Bulk telomere length, Southern blot, HCT116. It is filed as cell-based. The conditions noted are these: HCT116 cells.
Another experiment concerns tankyrases. The conditions noted are these: in vitro assays; cited from earlier work.
The test system of the next experiment is PARP1. The experiment can be described thus: Western blot of PARylation with antibody against poly ADP-ribose. It is filed as cell-based. The conditions noted are these: antibody directed against poly ADP-ribose. A general note: A western blot detects proteins with antibodies after separation by electrophoresis.

Molecules are shown by their SMILES. “Also recorded” adds a separate entry of the source.

Experimental for PARP1: To examine activation of ATM kinase pathway in response to PARP1 inhibition the phosphorylation levels of KAP1, in response to the PARP1 inhibitor, Olaparib was measured.
To detect phospho-proteins, 1× lysis buffer made of final concentration of 1×RIPA™ (Cell Signaling, #98016S), 1× protease inhibitor cocktail, 1× PhosSTOP™ (Roche, 4906845001) was added directly to cells on the dish after washing with PBS. Protein concentration was measured with a BCA protein assay kit (Thermo, #23227). Typically 10 μg of protein from each sample was applied to SDS-PAGE gels (Biorad, #456-1084) and transferred to nitrocellulose membranes in transfer buffer. After blocking with the Odyssey™ blocking buffer (LI-COR, #927-40000), membranes were incubated at 4° C. overnight or 1 hr at RT with the following primary antibodies: anti-phospho-Kap1 (Bethyl Lab, #A300-767A); anti-phospho-CHK1 (Cell Signaling, #2348S); anti-phospho-ATM (Millipore, #05-740); anti-HA (Santa Cruz, #sc-7392); anti-Actin (Santa Cruz, #sc-1616); anti-PAR (Trevigen, #4335-MC-100). The following day, blots are washed with 1×PBS− T for 3×15 minutes, and then incubated with secondary antibodies conjugated to near-infrared dyes (IRDye® 680 anti-goat, 800 anti-rabbit, 800 anti-mouse, LI-COR). […] Band intensities were quantified using the Odyssey™ software (LI-COR) and normalized to Actin levels. […]

For `O=c1cc(-c2cccc3c2Sc2ccccc2S3)oc(N2CCOCC2)c1` [KU55933], in the experiment on SL13 cells [1], the “telomere elongation on overexpression of telomerase (Southern blot)” value is on record as “blocked this telomere elongation”. Besides, the bulk telomere length entry with HT1080 cells is “shortens bulk telomeres”; in the experiment with SL13 cells [2] (SL13 cells grown in 10 μM KU55933, different population doublings), “telomere shortening also occurred, although at a somewhat slower rate”; with human HCT116, “telomere shortening”. In addition, at telomerase, the telomerase activity result is “no change in telomerase activity”.
Turning to `O=C(c1cc(Cc2n[nH]c(=O)c3ccccc23)ccc1F)N1CCN(C(=O)C2CC2)CC1` [Olaparib], the effect on tankyrases result in the experiment with tankyrases is listed as “little effect on tankyrases”. The PARylation entry in the experiment with PARP1 is on record as “inhibited PARylation”. Further, the telomerase activity result on telomerase is on record as “no change in telomerase activity”. The “telomere length by Southern blot” value with SL13 cells [2] (SL13 cells grown in presence of Olaparib for 55 population doublings) is recorded as “Telomere length gradually increased; also recorded: gradually increased after 25 PDs”.
